From patent US20230124862A1, “BISMUTH THIOL COMPOUNDS AND COMPOSITIONS AND METHODS OF TREATING MICROBIAL CO-INFECTIONS” (Microbion Corporation, priority 2020, published 2023)
≈ marks a conversion by molar mass, not a printed value. Where two headings read alike, the source gives them in different places.

What was measured:
[1] = system: cell wall synthesis in E. coli ATCC 25922; conditions: 8X the MIC
[2] = system: Gram-positive organisms (S. aureus, S. pneumoniae); test: Broth microdilution MIC with pulmonary surfactant (Survanta); format: cell-based, Staphylococcus aureus, Streptococcus pneumoniae
E. coli ATCC 25922 = test: Broth microdilution MIC (Example 16)
[3] = system: lipid synthesis in E. coli ATCC 25922; test: Macromolecular synthesis assay: lipid synthesis ([3H] glycerol); format: cell-based, Escherichia coli; conditions: control drug, concentration not given
Protocol: Chloroform (125 μL) was then added to each reaction and vortexed, followed by the addition of 125 μl dH2O and vortexing. Reactions were centrifuged at 13,000 rpm in a microfuge for 10 min, and then 150 μl of the organic phase was transferred to a scintillation vial and allowed to dry in a fume hood for at least 1 hr.

[4] = system: RNA synthesis in E. coli ATCC 25922; format: cell-based, Escherichia coli; conditions: 8X the MIC
[5] = system: RNA synthesis in E. coli MMX 121 (K12 tolC mutant); format: cell-based, Escherichia coli; conditions: 8X the MIC
[6] = system: protein synthesis in E. coli ATCC 25922; conditions: 8X the MIC
[7] = Escherichia coli, ATCC25922, E. coli ATCC 25922, inoculum 1
[8] = Escherichia coli, ATCC25922, E. coli ATCC 25922, inoculum 2

In the case of C[C@@H](O)[C@H]1C(=O)N2C(C(=O)O)=C(SCCN=CN)C[C@H]12 [imipenem], the “inhibition of cell wall synthesis” value [1] is reported as 78.8%, the MIC ([2]; S. pneumoniae ATCC 49619, 0 percent Survanta) is reported as no more than 0.015 µg/mL and the MIC ([2]; S. pneumoniae ATCC 49619, 1 percent Survanta) is reported as 0.03 µg/mL (≈ 0.1 µM). It also gave an MIC ([2]; S. pneumoniae ATCC 49619, 2.5 percent Survanta) of 0.03 µg/mL (≈ 0.1 µM), an MIC ([2]; S. pneumoniae MMX 3162, 0 percent Survanta) of 0.25 µg/mL (≈ 0.835 µM) and an MIC ([2]; S. pneumoniae MMX 3162, 1 percent Survanta) of 0.25 µg/mL (≈ 0.835 µM). It also gave an MIC ([2]; S. pneumoniae MMX 3162, 2.5 percent Survanta) of 0.25 µg/mL (≈ 0.835 µM), an MIC ([2]; S. pneumoniae MMX 3162, 5 percent Survanta) of 0.25 µg/mL (≈ 0.835 µM) and an MIC ([2]; Staphylococcus aureus, ATCC29213, S. aureus ATCC 29213, 0 percent Survanta) of no more than 0.015 µg/mL. For the same compound, the MIC ([2]; Staphylococcus aureus, ATCC29213, S. aureus ATCC 29213, 1 percent Survanta) was no more than 0.015 µg/mL, the MIC ([2]; Staphylococcus aureus, ATCC29213, S. aureus ATCC 29213, 2.5 percent Survanta) was no more than 0.015 µg/mL and the MIC ([2]; Staphylococcus aureus, ATCC29213, S. aureus ATCC 29213, 5 percent Survanta) was no more than 0.015 µg/mL. It also gave an MIC ([2]; Staphylococcus aureus, ATCC29213, S. aureus ATCC 29213, 10 percent Survanta) of no more than 0.015 µg/mL, an MIC ([2]; Staphylococcus aureus, ATCC43300, S. aureus ATCC 43300, 0 percent Survanta) of 0.5 µg/mL (≈ 1.67 µM) and an MIC (E. coli ATCC 25922; Escherichia coli, ATCC25922) of 0.12 µg/mL (≈ 0.401 µM). For the same compound, the MIC (E. coli ATCC 25922; [7]) was 0.12 µg/mL (≈ 0.401 µM) and the MIC (E. coli ATCC 25922; [8]) was 0.12 µg/mL (≈ 0.401 µM).

For Oc1cc(Cl)ccc1Oc1ccc(Cl)cc1Cl [irgasan], the “inhibition of lipid synthesis” value [3] was 63.1%, the MIC (E. coli ATCC 25922; E. coli ATCC 25922, inoculum 1) was 0.12 µg/mL (≈ 0.414 µM) and the MIC (E. coli ATCC 25922; E. coli ATCC 25922, inoculum 2) was 0.12 µg/mL (≈ 0.414 µM). For the same compound, the MIC (E. coli ATCC 25922; E. coli ATCC 25922, inoculum 3) was 0.12 µg/mL (≈ 0.414 µM).

With CO[C@H]1/C=C/O[C@@]2(C)Oc3c(C)c(O)c4c(O)c(c(/C=N/N5CCN(C)CC5)c(O)c4c3C2=O)NC(=O)/C(C)=C\C=C\[C@H](C)[C@H](O)[C@@H](C)[C@@H](O)[C@@H](C)[C@H](OC(C)=O)[C@@H]1C [rifampicin] the “inhibition of RNA synthesis” value ([4]; initial assay) was 88.5%, the “inhibition of RNA synthesis” value ([4]; repeat assay) was 89.4% and the “inhibition of RNA synthesis” value [5] was 91.9%. For the same compound, the MIC (E. coli ATCC 25922; Escherichia coli, ATCC25922) was 8 µg/mL (≈ 9.72 µM), the MIC (E. coli ATCC 25922; [7]) was 8 µg/mL (≈ 9.72 µM) and the MIC (E. coli ATCC 25922; [8]) was 8 µg/mL (≈ 9.72 µM).

With CN(C)[C@@H]1C(O)=C(C(N)=O)C(=O)[C@@]2(O)C(O)=C3C(=O)c4c(O)cccc4[C@@](C)(O)[C@H]3C[C@@H]12 [tetracycline] the “inhibition of protein synthesis” value [6] was 93.8%, the MIC (E. coli ATCC 25922; Escherichia coli, ATCC25922) was 1 µg/mL (≈ 2.25 µM) and the MIC (E. coli ATCC 25922; [7]) was 1 µg/mL (≈ 2.25 µM). The MIC (E. coli ATCC 25922; [8]) was 1 µg/mL (≈ 2.25 µM).
